Data from patent US20070128217A1 (priority 2003, published 2007).

What was measured:
[1] = tested on: rabbit serum obtained by immunizing a rabbit with the SARS-CoV strain Frankfurt 1; format: binding; parameters: Binding of a rabbit serum to linear peptides / Binding of a rabbit serum to looped peptides / Rabbit serum linear peptides / Rabbit serum looped peptides / Binding of a rabbit serum to linear peptides of protein N of SARS-CoV Urbani (Rabbit serum linear peptides) / Binding of a rabbit serum to looped/cyclic peptides of protein N of SARS-CoV Urbani (Rabbit serum looped peptides): unit not given here
[2] = tested on: control sera (pooled serum of ten healthy LUMC hospital workers; commercial negative donor pooled serum from the Dutch bloodbank); format: binding, human; parameters: Binding of Control serum LUMC to linear peptides / Binding of Control serum Blood-bank to linear peptides / Binding of Control serum LUMC to looped peptides / Binding of Control Serum Blood-Bank to Looped peptides / Binding of Control serum LUMC to linear peptides of the protein M of SARS-CoV Urbani / Binding of Control serum Blood-bank to linear peptides of the protein M of SARS-CoV Urbani / Binding of Control serum LUMC to looped peptides of the protein M of SARS-CoV Urbani / Binding of Control Serum Blood-Bank to Looped peptides of the protein M of SARS-CoV Urbani: unit not given here
[3] = tested on: antibodies in sera from SARS patients (sera 1a, 1b, 2, 6, 37, 62, London, SARS-yellow, SARS-green); format: binding, human; parameters: Binding of serum 6 to linear peptides of protein X1 of SARS-CoV Urbani / Binding of serum 37 to linear peptides of protein X1 of SARS-CoV Urbani / Binding of serum 6 to looped/cyclic peptide (PEPSCAN-ELISA) / Binding of serum 37 to looped/cyclic peptide (PEPSCAN-ELISA) / Binding of serum 37 to looped/cyclic peptides of protein X1 of SARS-CoV Urbani / Binding of serum 6 to linear peptides of protein X2 / Binding of serum 37 to linear peptides of protein X2 / Binding of serum 37 to looped/cyclic peptides of protein X2 of SARS-CoV Urbani / Binding of serum 6 to linear peptides of protein M of SARS-CoV Urbani / Binding of serum 37 to linear peptides of protein M of SARS-CoV Urbani / Binding of serum 6 to looped/cyclic peptides of protein M of SARS-CoV Urbani / Binding of serum 37 to looped/cyclic peptides of protein M of SARS-CoV Urbani / Binding of serum 6 to linear peptides of protein X3 of SARS-CoV Urbani / Binding of serum 37 to linear peptides of protein X3 of SARS-CoV Urbani / Binding of serum 37 to looped/cyclic peptides of protein X3 of SARS-CoV Urbani / Binding of serum 6 to linear peptides of protein X4 of SARS-CoV Urbani / Binding of serum 37 to linear peptides of protein X4 of SARS-CoV Urbani / Binding of serum 37 to looped/cyclic peptides of protein X4 of SARS-CoV Urbani / Binding of serum 6 to linear peptides of protein X5 of SARS-CoV Urbani / Binding of serum 37 to linear peptides of protein X5 of SARS-CoV Urbani / Binding of serum 37 to looped/cyclic peptides of protein X5 of SARS-CoV Urbani / Binding of serum 6 to linear peptides of protein N of SARS-CoV Urbani / Binding of serum 37 to linear peptides of protein N of SARS-CoV Urbani / Binding of serum 6 to linear peptide (PEPSCAN-ELISA) / Binding of serum 1a to looped/cyclic peptides of protein N of SARS-CoV Urbani / Binding of serum 1b to looped/cyclic peptides of protein N of SARS-CoV Urbani / Binding of serum 2 to looped/cyclic peptides of protein N of SARS-CoV Urbani / Binding of serum 6 to looped/cyclic peptides of protein N of SARS-CoV Urbani / Binding of serum 37 to looped/cyclic peptides of protein N of SARS-CoV Urbani / Binding of serum 62 to looped/cyclic peptides of protein N of SARS-CoV Urbani / Binding of serum London to looped/cyclic peptides of protein N of SARS-CoV Urbani / Binding of serum SARS-green to looped/cyclic peptides of protein N of SARS-CoV Urbani: unit not given here

QLALYKGFQFICNLL
Binding of a rabbit serum to linear peptides [1]: 0.3 | Binding of a rabbit serum to looped peptides [1]: 0.6 | Binding of Control Serum Blood-Bank to Looped peptides [2]: 0.5 | Binding of Control serum Blood-bank to linear peptides [2]: 0.6 | Binding of Control serum LUMC to linear peptides [2]: 0.5 | Binding of Control serum LUMC to looped peptides [2]: 0.6 | Binding of serum 1a to looped/cyclic peptide (PEPSCAN-ELISA) [3]: 0.5 | Binding of serum 1b to looped/cyclic peptide (PEPSCAN-ELISA) [3]: 0.4 | Binding of serum 2 to looped/cyclic peptide (PEPSCAN-ELISA) [3]: 0.4 | Binding of serum 6 to looped/cyclic peptide (PEPSCAN-ELISA) [3]: 1.2 | Binding of serum 37 to looped/cyclic peptide (PEPSCAN-ELISA) [3]: 0.5 | Binding of serum 62 to looped/cyclic peptide (PEPSCAN-ELISA) [3]: 0.5 | Binding of serum London to looped/cyclic peptide (PEPSCAN-ELISA) [3]: 1.5 | Binding of serum SARS-green to looped/cyclic peptide (PEPSCAN-ELISA) [3]: 0.3 | Binding of serum SARS-yellow to looped/cyclic peptide (PEPSCAN-ELISA) [3]: 0.5

LIARCWYLHEGHQTA
Rabbit serum linear peptides [1]: 0.8 | Rabbit serum looped peptides [1]: 0.0 | Binding of Control Serum Blood-Bank to Looped peptides [2]: 0.3 | Binding of Control serum Blood-bank to linear peptides [2]: 0.6 | Binding of Control serum LUMC to linear peptides [2]: 0.4 | Binding of Control serum LUMC to looped peptides [2]: 0.0 | Binding of serum 1a to linear peptides of protein X5 of SARS-CoV Urbani [3]: 0.7 | Binding of serum 1a to looped/cyclic peptides of protein X5 of SARS-CoV Urbani [3]: 0.4 | Binding of serum 1b to linear peptides of protein X5 of SARS-CoV Urbani [3]: 0.6 | Binding of serum 1b to looped/cyclic peptides of protein X5 of SARS-CoV Urbani [3]: 0.4 | Binding of serum 2 to linear peptides of protein X5 of SARS-CoV Urbani [3]: 0.6 | Binding of serum 2 to looped/cyclic peptides of protein X5 of SARS-CoV Urbani [3]: 0.2 | Binding of serum 6 to linear peptides of protein X5 of SARS-CoV Urbani [3]: 0.1 | Binding of serum 6 to looped/cyclic peptides of protein X5 of SARS-CoV Urbani [3]: 0.1 | Binding of serum 37 to linear peptides of protein X5 of SARS-CoV Urbani [3]: 0.8 | Binding of serum 37 to looped/cyclic peptides of protein X5 of SARS-CoV Urbani [3]: 0.3 | Binding of serum 62 to linear peptides of protein X5 of SARS-CoV Urbani [3]: 0.9 | Binding of serum 62 to looped/cyclic peptides of protein X5 of SARS-CoV Urbani [3]: 0.1 | Binding of serum London to linear peptides of protein X5 of SARS-CoV Urbani [3]: 0.6 | Binding of serum London to looped/cyclic peptides of protein X5 of SARS-CoV Urbani [3]: 0.0 | Binding of serum SARS-green to linear peptides of protein X5 of SARS-CoV Urbani [3]: 0.6 | Binding of serum SARS-green to looped/cyclic peptides of protein X5 of SARS-CoV Urbani [3]: 0.6 | Binding of serum SARS-yellow to linear peptides of protein X5 of SARS-CoV Urbani [3]: 0.0 | Binding of serum SARS-yellow to looped/cyclic peptides of protein X5 of SARS-CoV Urbani [3]: 0.0

VGLMWLSYFVASFRL
Rabbit serum linear peptides [1]: 0.0 | Rabbit serum looped peptides [1]: 0.4 | Binding of Control Serum Blood-Bank to Looped peptides of the protein M of SARS-CoV Urbani [2]: 0.6 | Binding of Control serum Blood-bank to linear peptides of the protein M of SARS-CoV Urbani [2]: 0.6 | Binding of Control serum LUMC to linear peptides of the protein M of SARS-CoV Urbani [2]: 0.5 | Binding of Control serum LUMC to looped peptides of the protein M of SARS-CoV Urbani [2]: 0.6 | Binding of serum 1a to linear peptides of protein M of SARS-CoV Urbani [3]: 0.6 | Binding of serum 1a to looped/cyclic peptides of protein M of SARS-CoV Urbani [3]: 0.6 | Binding of serum 1b to linear peptides of protein M of SARS-CoV Urbani [3]: 0.5 | Binding of serum 1b to looped/cyclic peptides of protein M of SARS-CoV Urbani [3]: 0.3 | Binding of serum 2 to linear peptides of protein M of SARS-CoV Urbani [3]: 0.4 | Binding of serum 2 to looped/cyclic peptides of protein M of SARS-CoV Urbani [3]: 0.5 | Binding of serum 6 to linear peptides of protein M of SARS-CoV Urbani [3]: 0.5 | Binding of serum 6 to looped/cyclic peptides of protein M of SARS-CoV Urbani [3]: 0.5 | Binding of serum 37 to linear peptides of protein M of SARS-CoV Urbani [3]: 0.4 | Binding of serum 37 to looped/cyclic peptides of protein M of SARS-CoV Urbani [3]: 0.6 | Binding of serum 62 to linear peptides of protein M of SARS-CoV Urbani [3]: 0.4 | Binding of serum 62 to looped/cyclic peptides of protein M of SARS-CoV Urbani [3]: 0.5 | Binding of serum London to linear peptides of protein M of SARS-CoV Urbani [3]: 0.5 | Binding of serum London to looped/cyclic peptides of protein M of SARS-CoV Urbani [3]: 0.2 | Binding of serum SARS-green to linear peptides of protein M of SARS-CoV Urbani [3]: 0.4 | Binding of serum SARS-green to looped/cyclic peptides of protein M of SARS-CoV Urbani [3]: 0.2 | Binding of serum SARS-yellow to linear peptides of protein M of SARS-CoV Urbani [3]: 0.1 | Binding of serum SARS-yellow to looped/cyclic peptides of protein M of SARS-CoV Urbani [3]: 0.8
